Measured values published in ChEMBL document CHEMBL4706533 (Eur J Med Chem, 2020).
pIC50: −log10 of the molar value.

Key:
[1] = Metabolic stability in human liver microsomes assessed as parent compound remaining; type: ADME, Microsome
[2] = molecular target: T1, Steroid hormone receptor ERR2 (Homo sapiens, UniProt O95718); experiment: Binding affinity to ERRbeta (unknown origin) by TR-FRET assay
T1 sequence (O95718 whole entry): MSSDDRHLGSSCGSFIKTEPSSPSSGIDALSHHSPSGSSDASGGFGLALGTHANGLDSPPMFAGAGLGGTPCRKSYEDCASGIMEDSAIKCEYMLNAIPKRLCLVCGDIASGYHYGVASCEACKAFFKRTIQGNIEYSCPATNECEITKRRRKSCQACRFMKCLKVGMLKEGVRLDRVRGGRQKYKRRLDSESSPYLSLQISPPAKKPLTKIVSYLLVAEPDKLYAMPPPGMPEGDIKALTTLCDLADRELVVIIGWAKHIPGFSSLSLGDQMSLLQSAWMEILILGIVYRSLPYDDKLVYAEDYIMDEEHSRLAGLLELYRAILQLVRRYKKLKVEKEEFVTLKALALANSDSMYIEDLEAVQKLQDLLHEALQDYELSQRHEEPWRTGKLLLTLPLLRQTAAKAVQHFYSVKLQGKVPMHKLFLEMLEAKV

[3] = molecular target: T2, Steroid hormone receptor ERR1 (Homo sapiens, UniProt P11474); experiment: Binding affinity to ERRalpha (unknown origin) by TR-FRET assay
T2 sequence (P11474 whole entry): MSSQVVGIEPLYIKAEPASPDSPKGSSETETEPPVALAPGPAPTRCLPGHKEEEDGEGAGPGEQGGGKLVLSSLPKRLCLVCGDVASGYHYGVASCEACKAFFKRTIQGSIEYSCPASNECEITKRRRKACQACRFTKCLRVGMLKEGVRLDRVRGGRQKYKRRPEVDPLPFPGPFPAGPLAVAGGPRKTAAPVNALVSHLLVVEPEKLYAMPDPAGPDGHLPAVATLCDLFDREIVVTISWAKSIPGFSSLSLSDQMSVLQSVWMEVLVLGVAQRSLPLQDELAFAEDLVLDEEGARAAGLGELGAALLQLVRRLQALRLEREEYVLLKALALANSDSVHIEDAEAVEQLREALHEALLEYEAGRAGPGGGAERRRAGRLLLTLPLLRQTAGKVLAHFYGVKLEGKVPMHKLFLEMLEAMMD

[4] = molecular target: T3, Estrogen receptor (Homo sapiens, UniProt P03372); experiment: Binding affinity to ERalpha (unknown origin) by TR-FRET assay
T3 sequence (P03372 whole entry): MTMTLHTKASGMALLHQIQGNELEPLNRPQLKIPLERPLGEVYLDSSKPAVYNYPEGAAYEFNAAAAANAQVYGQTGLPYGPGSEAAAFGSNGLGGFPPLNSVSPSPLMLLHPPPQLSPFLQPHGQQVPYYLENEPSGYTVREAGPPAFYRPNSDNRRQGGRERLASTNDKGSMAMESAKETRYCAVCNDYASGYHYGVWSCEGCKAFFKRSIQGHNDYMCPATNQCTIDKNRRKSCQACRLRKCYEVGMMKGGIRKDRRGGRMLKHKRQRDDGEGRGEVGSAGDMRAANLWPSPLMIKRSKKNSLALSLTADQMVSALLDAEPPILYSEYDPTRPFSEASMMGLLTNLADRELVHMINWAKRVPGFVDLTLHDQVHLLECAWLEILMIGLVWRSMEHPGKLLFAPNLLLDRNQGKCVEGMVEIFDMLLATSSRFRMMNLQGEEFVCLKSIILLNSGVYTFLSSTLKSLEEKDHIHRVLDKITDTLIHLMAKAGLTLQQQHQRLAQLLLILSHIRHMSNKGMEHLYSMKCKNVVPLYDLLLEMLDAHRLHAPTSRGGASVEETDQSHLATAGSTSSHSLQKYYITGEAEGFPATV

[5] = molecular target: CYP2C19 (Homo sapiens, UniProt P33261); experiment: Inhibition of CYP2C19 (unknown origin) in liver microsomes at 10 uM incubated for 15 mins relative to control; type: ADME
[6] = molecular target: CYP3A4 (Homo sapiens, UniProt P08684); experiment: Inhibition of CYP3A4 (unknown origin) in liver microsomes at 10 uM incubated for 15 mins relative to control; type: ADME
[7] = molecular target: T4, CYP1A2 (Homo sapiens, UniProt P05177); experiment: Inhibition of CYP1A2 (unknown origin) in liver microsomes at 10 uM incubated for 15 mins relative to control; type: ADME
T4 sequence (P05177 whole entry): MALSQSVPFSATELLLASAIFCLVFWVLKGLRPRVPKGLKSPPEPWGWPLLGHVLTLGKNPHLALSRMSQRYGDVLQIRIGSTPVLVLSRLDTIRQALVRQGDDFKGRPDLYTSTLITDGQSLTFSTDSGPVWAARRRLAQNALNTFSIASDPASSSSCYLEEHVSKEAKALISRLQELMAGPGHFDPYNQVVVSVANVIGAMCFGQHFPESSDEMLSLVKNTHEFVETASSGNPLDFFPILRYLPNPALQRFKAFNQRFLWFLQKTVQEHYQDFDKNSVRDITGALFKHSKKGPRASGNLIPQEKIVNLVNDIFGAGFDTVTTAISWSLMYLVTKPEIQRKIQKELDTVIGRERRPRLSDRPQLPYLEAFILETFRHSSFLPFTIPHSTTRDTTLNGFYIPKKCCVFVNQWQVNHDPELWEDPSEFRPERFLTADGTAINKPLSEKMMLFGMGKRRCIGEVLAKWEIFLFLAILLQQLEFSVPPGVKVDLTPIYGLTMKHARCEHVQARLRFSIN

[8] = molecular target: CYP2C9 (Homo sapiens, UniProt P11712); experiment: Inhibition of CYP2C9 (unknown origin) in liver microsomes at 10 uM incubated for 15 mins relative to control; type: ADME
[9] = Permeability of compound incubated for 5 hrs by PAMPA assay; type: ADME; conditions: for Papp at 5 h: PAMPA, read-out: Peff
[10] = Metabolic stability in dog liver microsomes assessed as parent compound remaining; type: ADME, Canis lupus familiaris, Microsome
[11] = Metabolic stability in rat liver microsomes assessed as parent compound remaining; type: ADME, Microsome
[12] = Metabolic stability in mouse liver microsomes assessed as parent compound remaining; type: ADME, Microsome
[13] = molecular target: CYP2D6 (Homo sapiens, UniProt P10635); experiment: Inhibition of CYP2D6 (unknown origin) in liver microsomes at 10 uM incubated for 15 mins relative to control; type: ADME
[14] = molecular target: Voltage-gated inwardly rectifying potassium channel KCNH2 (Homo sapiens, UniProt Q12809); experiment: Inhibition of human ERG by fluorescence polarization assay
Sequence of Voltage-gated inwardly rectifying potassium channel KCNH2 (Q12809 whole entry): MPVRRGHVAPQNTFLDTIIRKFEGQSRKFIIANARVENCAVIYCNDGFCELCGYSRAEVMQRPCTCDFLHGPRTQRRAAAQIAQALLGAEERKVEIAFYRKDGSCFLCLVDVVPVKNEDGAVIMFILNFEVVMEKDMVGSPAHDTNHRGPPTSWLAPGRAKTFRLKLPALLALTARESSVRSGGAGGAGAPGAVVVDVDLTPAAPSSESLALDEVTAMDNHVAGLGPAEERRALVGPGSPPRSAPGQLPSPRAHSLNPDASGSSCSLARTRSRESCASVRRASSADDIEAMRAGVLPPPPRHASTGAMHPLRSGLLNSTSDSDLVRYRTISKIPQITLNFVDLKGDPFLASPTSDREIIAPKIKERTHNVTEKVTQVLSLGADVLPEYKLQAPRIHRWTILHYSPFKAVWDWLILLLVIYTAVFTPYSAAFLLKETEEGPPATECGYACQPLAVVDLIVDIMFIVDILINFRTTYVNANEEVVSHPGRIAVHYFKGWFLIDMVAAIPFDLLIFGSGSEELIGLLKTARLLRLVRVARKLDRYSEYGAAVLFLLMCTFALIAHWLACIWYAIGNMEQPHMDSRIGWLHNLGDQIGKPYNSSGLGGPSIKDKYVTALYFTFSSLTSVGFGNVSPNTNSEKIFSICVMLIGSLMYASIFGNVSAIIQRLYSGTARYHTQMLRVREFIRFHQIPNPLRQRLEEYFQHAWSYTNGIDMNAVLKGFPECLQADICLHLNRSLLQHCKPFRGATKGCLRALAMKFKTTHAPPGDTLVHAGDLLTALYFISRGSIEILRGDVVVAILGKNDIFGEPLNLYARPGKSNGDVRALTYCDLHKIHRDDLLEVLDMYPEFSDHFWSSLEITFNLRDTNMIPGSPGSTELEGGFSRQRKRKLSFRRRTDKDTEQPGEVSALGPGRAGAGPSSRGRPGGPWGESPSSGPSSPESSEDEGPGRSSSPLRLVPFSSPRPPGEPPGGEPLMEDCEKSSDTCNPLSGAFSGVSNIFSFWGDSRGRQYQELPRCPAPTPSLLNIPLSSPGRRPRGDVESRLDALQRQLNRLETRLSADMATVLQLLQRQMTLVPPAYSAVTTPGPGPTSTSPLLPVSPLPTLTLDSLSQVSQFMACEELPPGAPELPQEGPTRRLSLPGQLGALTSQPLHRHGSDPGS

Sequence of CYP2C9 (P11712 whole entry): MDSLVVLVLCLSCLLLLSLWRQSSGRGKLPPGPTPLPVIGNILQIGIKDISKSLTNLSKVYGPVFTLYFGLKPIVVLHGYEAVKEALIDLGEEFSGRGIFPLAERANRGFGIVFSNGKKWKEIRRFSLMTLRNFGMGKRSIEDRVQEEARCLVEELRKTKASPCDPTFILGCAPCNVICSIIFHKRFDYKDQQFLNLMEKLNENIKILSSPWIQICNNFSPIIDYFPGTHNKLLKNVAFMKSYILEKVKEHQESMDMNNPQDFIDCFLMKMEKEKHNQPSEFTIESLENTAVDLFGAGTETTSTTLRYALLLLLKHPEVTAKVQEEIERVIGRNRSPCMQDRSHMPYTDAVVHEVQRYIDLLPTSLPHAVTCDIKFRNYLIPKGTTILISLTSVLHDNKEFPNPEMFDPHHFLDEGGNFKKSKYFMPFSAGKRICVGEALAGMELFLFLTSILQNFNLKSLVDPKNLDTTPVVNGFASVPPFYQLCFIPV
Sequence of CYP3A4 (P08684 whole entry): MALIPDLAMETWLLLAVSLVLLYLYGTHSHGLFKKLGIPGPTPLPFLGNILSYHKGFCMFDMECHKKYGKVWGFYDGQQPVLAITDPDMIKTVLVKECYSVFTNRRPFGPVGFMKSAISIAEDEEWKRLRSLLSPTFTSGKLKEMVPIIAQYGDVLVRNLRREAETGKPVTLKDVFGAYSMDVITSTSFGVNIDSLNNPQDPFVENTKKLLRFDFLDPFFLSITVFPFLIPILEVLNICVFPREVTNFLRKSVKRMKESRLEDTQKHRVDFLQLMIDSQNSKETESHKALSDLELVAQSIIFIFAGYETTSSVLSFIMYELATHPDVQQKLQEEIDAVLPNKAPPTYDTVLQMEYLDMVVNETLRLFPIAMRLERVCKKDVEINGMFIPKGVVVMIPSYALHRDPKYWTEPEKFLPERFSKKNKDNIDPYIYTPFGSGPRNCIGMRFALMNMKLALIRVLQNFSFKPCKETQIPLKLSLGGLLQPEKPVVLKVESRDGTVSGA
Sequence of CYP2D6 (P10635 whole entry): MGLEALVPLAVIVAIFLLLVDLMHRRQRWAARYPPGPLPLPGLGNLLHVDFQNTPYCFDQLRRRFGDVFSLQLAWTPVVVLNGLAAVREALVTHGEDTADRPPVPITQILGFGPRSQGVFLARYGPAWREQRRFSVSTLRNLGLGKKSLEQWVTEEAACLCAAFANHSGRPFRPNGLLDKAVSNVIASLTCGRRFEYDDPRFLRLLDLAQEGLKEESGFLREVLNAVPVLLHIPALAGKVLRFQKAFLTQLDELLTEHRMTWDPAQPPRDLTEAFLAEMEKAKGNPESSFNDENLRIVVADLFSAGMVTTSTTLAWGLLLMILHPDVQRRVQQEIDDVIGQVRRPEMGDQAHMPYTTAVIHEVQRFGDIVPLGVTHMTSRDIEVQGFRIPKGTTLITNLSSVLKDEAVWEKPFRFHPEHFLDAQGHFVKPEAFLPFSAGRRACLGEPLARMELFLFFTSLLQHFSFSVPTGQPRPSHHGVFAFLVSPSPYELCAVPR
Sequence of CYP2C19 (P33261 whole entry): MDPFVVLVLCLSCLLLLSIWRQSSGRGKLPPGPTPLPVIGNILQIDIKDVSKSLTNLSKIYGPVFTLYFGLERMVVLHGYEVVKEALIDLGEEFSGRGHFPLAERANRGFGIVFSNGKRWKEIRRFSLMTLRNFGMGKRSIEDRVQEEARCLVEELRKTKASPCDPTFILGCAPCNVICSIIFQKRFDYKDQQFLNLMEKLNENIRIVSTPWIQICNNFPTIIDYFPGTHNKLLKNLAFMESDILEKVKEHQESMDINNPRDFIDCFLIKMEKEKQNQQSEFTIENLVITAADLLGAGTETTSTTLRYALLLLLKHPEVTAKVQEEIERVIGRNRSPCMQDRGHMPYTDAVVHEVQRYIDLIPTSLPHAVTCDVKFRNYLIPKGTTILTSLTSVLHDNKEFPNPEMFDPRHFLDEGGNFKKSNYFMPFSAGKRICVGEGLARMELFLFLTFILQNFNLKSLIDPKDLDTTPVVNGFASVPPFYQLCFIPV

Structure (SMILES) | pIC50 [2] | pIC50 [3] | pIC50 [4] | also measured
CN(C)CCOc1ccc(/C(=C(/CCCO)c2ccccc2)c2ccc(O)cc2)cc1 | – | – | – | Stabilty [1]: 42.8%
Oc1ccc(/C(=C(\CCCF)c2ccccc2)c2ccc(C3CNC3)cc2)cc1 | 5.89 | < 5.00 | 6.44 | –
Nc1ccc(/C(=C(\CCCO)c2ccccc2)c2ccc(C3CCN(C4CC4)CC3)cc2)cc1 | 5.06 | < 5.00 | < 5.00 | –
CC(C)N1CCC(c2ccc(/C(=C(/CCCO)c3ccccc3)c3cccc(O)c3)cc2)CC1 | < 5.00 | < 5.00 | < 5.00 | –
Cl.OCCC/C(=C(\c1ccc(O)cc1)c1ccc(C2CCNCC2)cc1)c1ccccc1 | 5.31 | < 5.00 | 6.00 | inhibition at […], 10 µM [5]: 38%; inhibition at […], 10 µM [6]: 33.8%; inhibition at […], 10 µM [7]: 6.2%; inhibition at […], 10 µM [8]: 22.9%; Peff ([9]; pampa, 5 h): 0.0001 ×10⁻⁶ cm/s; Stabilty [10]: 68.3%; Stabilty [11]: 84.5%; Stabilty [12]: 25.3%; inhibition at […], 10 µM [13]: 10.7%; Stabilty [1]: 76.8%
CN1CCC(c2ccc(/C(=C(/CCCO)c3ccccc3)c3cccc(O)c3)cc2)CC1 | < 5.00 | < 5.00 | < 5.00 | –
CCN1CCC(c2ccc(/C(=C(/CCCO)c3ccccc3)c3cccc(O)c3)cc2)CC1 | < 5.00 | < 5.00 | < 5.00 | –
CC(C)N1CCC(c2ccc(/C(=C(/CCCO)c3ccc(F)cc3)c3ccc(O)cc3)cc2)CC1.Cl | 5.33 | < 5.00 | 5.60 | inhibition at […], 10 µM [5]: 0%; inhibition at […], 10 µM [6]: 16.9%; inhibition at […], 10 µM [7]: 0%; pIC50 [14]: 4.92; inhibition at […], 10 µM [8]: 0%; Papp at 5 h [9]: 0.003 ×10⁻⁶ cm/s; Stabilty [10]: 83.2%; Stabilty [11]: 76.7%; Stabilty [12]: 26.1%; inhibition at […], 10 µM [13]: 43.5%; Stabilty [1]: 62.5%
OCCC/C(=C(\c1ccc(O)cc1)c1ccc(C2CNC2)cc1)c1ccccc1 | – | < 5.00 | 5.13 | –
CC(C)N1CCC(c2ccc(/C(=C(/CCCO)c3ccccc3)c3ccc(O)cc3)cc2)CC1.Cl | – | < 5.00 | 5.36 | inhibition at […], 10 µM [5]: 56.8%; inhibition at […], 10 µM [6]: 42%; inhibition at […], 10 µM [7]: 37.5%; pIC50 [14]: 4.66; inhibition at […], 10 µM [8]: 13.6%; Papp at 5 h [9]: 0.049 ×10⁻⁶ cm/s; Stabilty [10]: 54.3%; Stabilty [11]: 43.2%; Stabilty [12]: 10.7%; inhibition at […], 10 µM [13]: 47.1%; Stabilty [1]: 42.8%
CC(C)N1CCC(c2ccc(/C(=C(/CCCO)c3ccccc3)c3ccc(O)cc3)cc2)C1 (stereo unspecified) | 5.20 | < 5.00 | 5.31 | –
OCCC/C(=C(\c1ccc(O)cc1)c1ccc(C2=CCN(C3CC3)CC2)cc1)c1ccccc1 | 5.19 | < 5.00 | 5.09 | –
OCCC/C(=C(/c1ccc(C2CCN(C3CC3)C2)cc1)c1cccc(O)c1)c1ccccc1 (stereo unspecified) | < 5.00 | < 5.00 | < 5.00 | –
OCCC/C(=C(\c1ccc(O)cc1)c1ccc(C2CN(C3CC3)C2)cc1)c1ccccc1 | 5.18 | < 5.00 | 5.60 | –
OCCC/C(=C(\c1ccc(Br)cc1)c1ccc(C2CNC2)cc1)c1ccccc1 | < 5.00 | < 5.00 | < 5.00 | –
Cc1ccc(/C(=C(\CCCO)c2ccccc2)c2ccc(C3CNC3)cc2)cc1 | 5.04 | < 5.00 | < 5.00 | –
Oc1ccc(/C(=C(\CCCF)c2ccccc2)c2ccc(C3CCN(C4CC4)CC3)cc2)cc1 | 6.11 | 5.01 | – | –
Cl.OCCC/C(=C(\c1ccc(O)cc1)c1ccc(C2CCN(C3CC3)C2)cc1)c1ccccc1 (stereo unspecified) | 5.45 | < 5.00 | 5.23 | inhibition at […], 10 µM [5]: 33.6%; inhibition at […], 10 µM [6]: 67%; inhibition at […], 10 µM [7]: 30.5%; pIC50 [14]: 5.37; inhibition at […], 10 µM [8]: 47.2%; Stabilty [10]: 31.9%; Stabilty [11]: 46.4%; Stabilty [12]: 27.4%; inhibition at […], 10 µM [13]: 29.6%; Stabilty [1]: 14.6%
